The results in this text go back to patent publication US11760733B2, “Small molecule regulators of mitochondrial fusion and methods of use thereof” (Washington University, priority 2017, dated 2023).

Structures are written as SMILES. Entries after “also recorded” stand apart in the source; their conditions may differ.

One data set relates to Mfn2 null MEFs. The data set is described as follows: Mitochondrial elongation (aspect ratio) fusogenicity assay. Type of data set: cell-based, mouse.
Conditions: not given
From the text:
A cultured murine embryonic fibroblast assay system was used in which mitochondrial elongation (an increase in aspect ratio) reflects enhanced mitochondrial fusion.
A pharmacophore model was generated based on the interactions of HR1 and HR2 domains in the calculated structural model of Mfn2 in the closed conformation. The key features included hydrophobic interactions involving Mfn2 HR1: Val372 and Met376, and aromatic interactions and hydrogen bonding involving Mfn2 HR1 His380. […] A library comprising ˜14 million commercially available compounds was prepared in silico and evaluated using PHASE to fit these criteria. Top ranked hits were clustered, and filtered based on pharmacological properties using Qikprop. The top 55 (see TABLE 4) commercially available small molecules conforming to the model were selected for functional screening and purchased in 1 mg aliquots. Each compound was dissolved to a stock concentration of 10 mM in DMSO and applied to Mfn2 null MEFs overnight at a final concentration of 1 mM. […] Images were acquired by confocal microscopy. Each compound was scored for fusogenicity (see e.g., FIG. 24A) and % cell death (see e.g., FIG. 24B).
Wild-type MEFs were prepared from E10.5 c57/bl6 mouse embryos. […] MEFs were subcultured in DMEM (4.5 g/L glucose) plus 10% fetal bovine serum, 1× nonessential amino acids, 2 mM L-glutamine, 100U/ml penicillin and 100 ug/ml streptomycin.
Cells were excited with 408 nm (Hoechst), […] (MitoTracker Green and Calcein AM, GFP), or 637 nm (TMRE, MitoTracker Orange, Ethidium homodimer-1, and AF594-Dextran) laser diodes. For mitochondrial elongation studies mitochondrial aspect ratio (long axis/short axis) was calculated using automated edge detection and Image J software. Mitochondrial depolarization was calculated as % of green mitochondria visualized on MitoTracker Green and TMRE merged images, expressed as green/(green+yellow mitochondria)×100.
On to `O=C1CC(SCCc2nc3ccccc3[nH]2)C(=O)N1c1cccc(F)c1` (centres unmarked) [D9], for which the “fusogenic activity (mitochondrial elongation), in words” value was “no true fusogenic activity; also recorded: failed validation in the secondary screen”.

The same data set, now with this note: Mus musculus; read-out: % long compare to B.
Consider `Cc1ccccc1-n1c(SCC(=O)Nc2sc3c(c2C(N)=O)CCC3)nnc1-c1ccncc1` [1-H1, 2-(2-{[4-(2-methylphenyl)-5-(pyridin-4-yl)-4H-1,2,4-triazol-3-yl]sulfanyl}acetamido)-4H,5H,6H-cyclopenta[b]thiophene-3-carboxamide], for which the Emax was -3%.
`CC1CCc2c(sc(NC(=O)CSc3nnc(C4CC4)n3-c3ccccc3)c2C(N)=O)C1` (centres unmarked) [1-D5, 2-{2-[(5-cyclopropyl-4-phenyl-4H-1,2,4-triazol-3-yl)sulfanyl]acetamido}-6-methyl-4,5,6,7-tetrahydro-1-benzothiophene-3-carboxamide]: the Emax amounted to 2%.
Still for that read-out and setting: the result for `Cc1cccc(NC(=O)CSCC(=O)N(Cc2ccc(N(C)C)cc2)C(C)C)c1` [B12, N-{[4-(dimethylamino)phenyl]methyl}-2-({[(3-methyl-phenyl)carbamoyl]methyl}sulfanyl)-N-(propan-2-yl)acetamide] reads 26%.
In the case of `Cc1occc1-c1nnc(SCC(=O)Nc2sc3c(c2C(N)=O)CCC3)n1-c1ccccc1` [1-D10, 2-(2-{[5-(2-methylfuran-3-yl)-4-phenyl-4H-1,2,4-triazol-3-yl]sulfanyl}acetamido)-4H,5H,6H-cyclopenta[b]thiophene-3-carboxamide], the Emax is 17%.
Same read-out and setting: the same measure for `Cc1ccccc1-n1c(SCC(=O)Nc2sc3c(c2C(N)=O)CCCC3)nnc1-c1cccnc1` [1-E12, 2-(2-{[4-(2-methylphenyl)-5-(pyridin-3-yl)-4H-1,2,4-triazol-3-yl]sulfanyl}acetamido)-4,5,6,7-tetrahydro-1-benzothiophene-3-carboxamide]: -3%; for `NC(=O)c1c(NC(=O)CSc2nnc(-c3ccccc3F)n2C2CC2)sc2c1CCC2` [1-A2, 2-(2-{[4-cyclopropyl-5-(2-fluorophenyl)-4H-1,2,4-triazol-3-yl]sulfanyl}acetamido)-4H,5H,6H-cyclopenta[b]thiophene-3-carboxamide]: -23%.
As to `CCn1c(SCC(=O)Nc2sc3c(c2C(N)=O)CCC3)nnc1-c1ccc(Cl)cc1` [1-A1, 2-(2-{[5-(4-chlorophenyl)-4-ethyl-4H-1,2,4-triazol-3-yl]sulfanyl}acetamido)-4H,5H,6H-cyclopenta[b]thiophene-3-carboxamide], the Emax amounted to 11%.
Still for that read-out and setting: the result for `Cc1ccc(-n2c(C)nnc2SCC(=O)Nc2sc3c(c2C(N)=O)CCCC3)cc1` [1-D3, 2-(2-{[5-methyl-4-(4-methylphenyl)-4H-1,2,4-triazol-3-yl]sulfanyl}acetamido)-4,5,6,7-tetrahydro-1-benzothiophene-3-carboxamide] reads 1%; that for `O=C(Nc1cc(CSCCOC(=O)C2C3CCCCC32)ccn1)C1C2CCCCC21` (centres unmarked) [A12, 2-{[(2-{bicyclo[4.1.0]heptane-7-amido}pyridin-4-yl)methyl]sulfanyl}ethyl bicyclo[4.1.0]heptane-7-carboxylate], 31%.
Same read-out and setting: the result for `NC(=O)c1c(NC(=O)CSc2nnc(-c3cccnc3)n2-c2ccccc2)sc2c1CCCC2` [1-G3, 2-(2-{[4-phenyl-5-(pyridin-3-yl)-4H-1,2,4-triazol-3-yl]sulfanyl}acetamido)-4,5,6,7-tetrahydro-1-benzothiophene-3-carboxamide] reads 4%; that for `NC(=O)c1c(NC(=O)CSc2nnc3n2CCCCC3)sc2c1CCCC2` [1-G10, 2-(2-{5H,6H,7H,8H,9H-[1,2,4]triazolo[4,3-a]azepin-3-ylsulfanyl}acetamido)-4,5,6,7-tetrahydro-1-benzothiophene-3-carboxamide], -3%.
As to `CC(c1cccc([N+](=O)[O-])c1)N(C)CC(=O)NCCSCc1ccccc1C#N` (centres unmarked) [B05, N-(2-{[(2-cyanophenyl)methyl]sulfanyl}ethyl)-2-{methyl[1-(3-nitrophenyl)ethyl]amino}acetamide], the Emax amounted to 15%.
In the case of `Cn1c(SCC(=O)Nc2sc3c(c2C(N)=O)CCC3)nnc1-c1ccc(Cl)cc1` [1-H2, 2-(2-{[5-(4-chlorophenyl)-4-methyl-4H-1,2,4-triazol-3-yl]sulfanyl}acetamido)-4H,5H,6H-cyclopenta[b]thiophene-3-carboxamide], the Emax amounted to 0%.
On the same count and under the same terms, the result for `CC1CCCCC1NC(=O)NCCSCc1ccccc1` (centres unmarked) [A10, 1-[2-(benzylsulfanyl)ethyl]-3-(2-methylcyclohexyl)urea] reads 72%; that for `CCn1c(SC(C)C(=O)Nc2sc3c(c2C(N)=O)CCC3)nnc1-c1ccoc1C` (centres unmarked) [1-A6, 2-(2-{[4-ethyl-5-(2-methylfuran-3-yl)-4H-1,2,4-triazol-3-yl]sulfanyl}propanamido)-4H,5H,6H-cyclopenta[b]thiophene-3-carboxamide], -31%.
Still for that read-out and setting: the same measure for `NC(=O)c1c(NC(=O)CSc2nnc(C3CC3)n2C2CC2)sc2c1CCCC2` [2-A2, 2-{2-[(dicyclopropyl-4H-1,2,4-triazol-3-yl)sulfanyl]acetamido}-4,5,6,7-tetrahydro-1-benzothiophene-3-carboxamide]: 4%; for `COCCn1c(SC(C)C(=O)Nc2sc3c(c2C(N)=O)CCC3)nnc1-c1ccncc1` (centres unmarked) [1-B12, 2-(2-{[4-(2-methoxyethyl)-5-(pyridin-4-yl)-4H-1,2,4-triazol-3-yl]sulfanyl}propanamido)-4H,5H,6H-cyclopenta[b]thiophene-3-carboxamide]: -1%.

Still in this data set, the particulars now being: rank by aspect ratio among 44 soluble compounds.
Take `CC(c1cccc([N+](=O)[O-])c1)N(C)CC(=O)NCCSCc1ccccc1C#N` (centres unmarked) [drawing 250]: the “Fusogenicity Rank” value came to 16.

System in a further data set: not listed separately
Kind of data set: Solubility of library compounds in DMSO stock. Type of data set: physicochemical. The conditions noted are these: stock concentration of 10 mM in DMSO. Here is the method:
A pharmacophore model was generated based on the interactions of HR1 and HR2 domains in the calculated structural model of Mfn2 in the closed conformation. The key features included hydrophobic interactions involving Mfn2 HR1: Val372 and Met376, and aromatic interactions and hydrogen bonding involving Mfn2 HR1 His380. […] A library comprising ˜14 million commercially available compounds was prepared in silico and evaluated using PHASE to fit these criteria. Top ranked hits were clustered, and filtered based on pharmacological properties using Qikprop. The top 55 (see TABLE 4) commercially available small molecules conforming to the model were selected for functional screening and purchased in 1 mg aliquots. Each compound was dissolved to a stock concentration of 10 mM in DMSO and applied to Mfn2 null MEFs overnight at a final concentration of […]. Eleven of the library members were not soluble in DMSO at the required concentration. The 44 fully soluble compounds were screened in groups of 6 at a time for cytotoxicity (calcein AM/ethidium homodimer staining; ThermoFisher LIVE/DEAD Assay cat # L3224) and fusogenicity (increase in mitochondrial aspect ratio; MitoTracker Orange staining) compared to cells treated overnight with […] of the parent HR1 367-384 mitofusin agonist peptide (positive control) or vehicle (DMSO). Images were acquired by confocal microscopy. Each compound was scored for fusogenicity (see e.g., FIG. 24A) and % cell death (see e.g., FIG. 24B). Pharmacophore model fit generally correlated with actual fusogenic activity (Pearson correlation coefficient r=0.214; see e.g., FIG. 24A, inset; TABLE 4).
On to `CC(=O)NC12CC3CC(C1)CC(C(=O)NCCSCc1ccc(C)cc1)(C3)C2` [3-acetamido-N-(2-{[(4-methylphenyl)methyl]sulfanyl}ethyl)adamantane-1-carboxamide], for which the “Solubility in DMSO” value is on record as “Insoluble”.
On the same count and under the same terms, the result for `COc1cc(Cl)c(C)cc1N1C(=O)[C@@H]2C[C@H]1CN2Cc1cccn1-c1ncccn1` [(1S,4S)-2-(4-chloro-2-methoxy-5-methylphenyl)-5-{[1-(pyrimidin-2-yl)-1H-pyrrol-2-yl]methyl}-2,5-diazabicyclo[2.2.1]heptan-3-one] reads “Insoluble”; that for `Cc1ccc(C(=O)C(C)Sc2nnc3c(=O)n(-c4ccccc4)ccn23)cc1C` (centres unmarked) [3-{[1-(3,4-dimethylphenyl)-1-oxopropan-2-yl]sulfanyl}-7-phenyl-7H,8H-[1,2,4]triazolo[4,3-a]pyrazin-8-one], “Insoluble”; that for `CCc1nnc(SC(CC)C(=O)N(CC)c2cccc(C)c2)c2cc3occc3n12` (centres unmarked) [N-ethyl-2-({12-ethyl-5-oxa-1,10,11-triazatricyclo[6.4.0.0^2,^6]dodeca-2(6),3,7,9,11-pentaen-9-yl}sulfanyl)-N-(3-methylphenyl)butanamide], “Insoluble”.
In the case of `Cc1ccc(C(=O)C(C)Sc2nnc3c(=O)n(-c4ccc(Br)cc4)ccn23)cc1C` (centres unmarked) [7-(4-bromophenyl)-3-{[1-(3,4-dimethylphenyl)-1-oxopropan-2-yl]sulfanyl}-7H,8H-[1,2,4]triazolo[4,3-a]pyrazin-8-one], the “Solubility in DMSO” value is recorded as “Insoluble”.
Still for that read-out and setting: the same measure for `CC(Sc1nc(C2CC2)nc2c1c(=O)[nH]c(=O)n2C1CC1)C(=O)NCC1CCCCC1` (centres unmarked) [N-(cyclohexylmethyl)-2-({2,8-dicyclopropyl-5,7-dioxo-5H,6H,7H,8H-pyrimido[4,5-d][1,3]diazin-4-yl}sulfanyl)propanamide]: “Insoluble”; for `Cc1ccc(SC(C)C(=O)Nc2ccc(NS(=O)(=O)c3ccc4c(c3)OCCCO4)cc2)cc1` (centres unmarked) [N-[4-(3,4-dihydro-2H-1,5-benzodioxepine-7-sulfonamido)phenyl]-2-[(4-methylphenyl)sulfanyl]propanamide]: “Insoluble”.
